Article PMC7038073, “Substituted Piperazines as Novel Potential Radioprotective Agents” (Molecules, 2020)
Values joined by “and” are separate entries in the source; they are usually repeats but may differ in a detail not shown here. Equal values may be shown once.

Assays:
BALB/c mice = assay: Safe use evaluation in vivo (MTD, symptoms, blood biochemistry, histopathology); parameters: key to piloerection / ataxia / prostration / tremor / excitation / saber-like tail / stooping / hyper/hypoventilation / drop of eyelids / lacrimation / convulsion: + (mild); ++ (moderate); +++ (severe); conditions: for ALP / ALT / AST / Amylase / Creatinine / Glucose / Urea: plasma 48 h after MTD i.p.
Text: (§1) Mild to moderate signs of intoxication could be observed once the MTD (maximum tolerated dose) was reached. In vivo, MTD is described as the highest dose of a given compound that can be administered before showing signs of toxicity (based on the same dose regimen or series) and whose excess would be expected to be fatal, yielding unreliable results. Therefore, a staged approach (including core and intermediate dose levels) has become a suitable strategy in this regard.
(§2) The symptoms described in Tables S1 (in Supplementary Materials) and S2 (in Supplementary Materials) diminished spontaneously within 2 h. After observing these symptoms, MTD thresholds were set at 100, 200, 100, 200, 2000, and 650 mg/kg for compounds 4, 5, 6, 7, 8, and 10, respectively. Animals receiving MTD were further examined by necropsy 48 h after administration. Plasma (reflecting biochemical changes in blood), intestine with mesentery (site of administration), and liver and kidney (elimination organs) were collected to evaluate the toxic potential of the tested compounds. For evaluation of the impact of the compounds on organ function, we performed blood biochemistry test 48 h after administration. The test focused on seven important indicators: glucose and amylase for normal function of pancreas, alanine aminotransferase (ALT), aspartate aminotransferase (AST), and alkaline phosphatase (ALP) for the normal function of liver, and urea and creatinine for the normal function of kidneys. […] According to Thoolen et al., focal necrosis can be occasionally seen in untreated rodents and therefore is not pathognomonic of hepatotoxicity, which is consistent with our findings.
(§3) Both male and female BALB/c mice (Velaz s r.o., Prague, Czech Republic) with an average weight of 21 ± 0.8 g and 21 ± 0.8 g, respectively, were selected for the safe use evaluation in vivo. The mice were housed in environmentally controlled breeding units (Faculty of Military Health Sciences vivarium; temperature 21 ± 1 °C, 12/12 h light/dark cycle) with access to food (Cerea corp., Pardubice, Czech Republic) and water ad libitum. The acclimatization period of the mice was at least 10 days before each experiment. All experimental procedures and protocols were reviewed and approved by the Ethics Committee of the Faculty of Military Health Sciences in Hradec Kralove, University of Defence in Brno. Compounds 2, 3, 4, 5, 6, 7, 8, 9, and 10 were dissolved in physiological saline solution (B. Braun Melsungen AG, Melsungen, Germany) and injected intraperitoneally (i.p.) into the corresponding mouse groups, which were composed of two males and two females. Several doses were administered to determine the maximum tolerated dose (MTD), which was assessed by close observation for signs of toxicity within the first two hours after administration of the compounds, and then regularly over the following 48 h. The observed symptoms were registered according to the laboratory Animal Science Association UK guidelines (for a detailed description, see [36]. After 48 h, the surviving animals were euthanized with CO2 and evaluated by basic macroscopic necropsy. Venous blood was collected into heparinized tubes (Scanlab Systems, Prague, Czech Republic) and the plasma was separated in a U-320R centrifuge (Boeco, Hamburg, Germany) to further evaluate the toxic potential of the tested compounds. The concentrations of glucose, urea, and creatinine and the levels of alanine aminotransferase (ALT), aspartate aminotransferase (AST), alkaline phosphatase (ALP), and amylase were evaluated in a qualified biochemical laboratory of the University Hospital Hradec Kralove (Hradec Kralove, Czech Republic). Additionally, intestine, liver, and kidney samples were collected for histopathologic examination. […]

[1] = as above; parameters: key to piloerection / ataxia / prostration / tremor / excitation / saber-like tail / stooping / hyper/hypoventilation / drop of eyelids / lacrimation / convulsion: + (mild); ++ (moderate); +++ (severe); conditions: both sexes, mouse, in vivo, ip; BALB/c mice, i.p., two males and two females per group; read-out: MTD (maximum tolerated dose)
Text: as §1, §2, §3

[2] = WST-1 cytotoxicity test, PANC-1; format: cell-based; conditions: human, PANC-1 cells, 48 h, WST-1, mean ± SD of three experiments, read-out: relative viability (%) compared to untreated control; for viability at 48 h, 10 µM: PANC-1, 10 µM; for viability at 48 h, 100 µM: PANC-1, 100 µM
Procedure: (§4) In this study, the cytotoxic effects of nine new compounds (2, 3, 4, 5, 6, 7, 8, 9, 10) were tested on 10 human cell lines (nine cancer and one non-cancer cell line). The cell lines were treated with each compound at concentrations of 10 µM and 100 µM for 48 h. The proliferation capacity of the treated cells was determined by WST-1 test and compared against the proliferation rate of the untreated control cells (100%).
(§5) The cell lines Jurkat, MOLT-4, A2780, A549, HT-29, PANC-1, HeLa, MCF-7, SAOS-2, and MRC-5 (all purchased from Sigma Aldrich, Czech Republic) were included in this study. All cell lines were maintained according to the provider’s guidelines, and plated and treated in 96-well plates (500 to 30 × 10^3 cells per well). The tested compounds 2, 3, 4, 5, 6, 7, 8, 9, and 10 were dissolved in 0.1% DMSO and kept in 10 mM stock solutions. Before use, the stock solution was diluted in culture media at ratios of 1:100 and 1:1000. The studied cell lines were treated with the compounds 2, 3, 4, 5, 6, 7, 8, 9, and 10 at concentrations of 10 and 100 µM for 48 h. Control cells were tested in culture media with and without DMSO (0.1%). The cells were also treated with 1 µM doxorubicin as a cytotoxicity control.
(§6) The WST-1 (2-(4-iodophenyl)-3-(4-nitrophenyl)-5-(2,4-disulfophenyl)-2H-tetrazolium, monosodium salt) test (Roche, Mannheim, Germany) was used according to the manufacturer’s protocol to determine cell viability in all 10 cell lines 48 h after treatment with the tested compounds. The cells were analyzed in a Tecan Infinite M200 spectrometer (Tecan Group, Männedorf, Switzerland) at 440 nm.

[3] = WST-1 cytotoxicity test, HT-29; format: cell-based; conditions: human, HT-29 cells, 48 h, WST-1, mean ± SD of three experiments, read-out: relative viability (%) compared to untreated control; for viability at 48 h, 10 µM: HT-29, 10 µM; for viability at 48 h, 100 µM: HT-29, 100 µM
Procedure: as §4, §5, §6

[4] = female BALB/c mice, animals 1 and 2
[5] = female mice, at MTD i.p., animals 1 and 2
[6] = male BALB/c mice, animals 1 and 2
[7] = male mice, at MTD i.p., animals 1 and 2

In the case of Cc1cc(OCC(O)CN2CCN(CCO)CC2)ccc1Cl.Cl.Cl (stereo not drawn) [Compound 4, 1-(4-chloro-3-methylphenoxy)-3-(4-(2-hydroxyethyl)piperazin-1-yl)propan-2-ol dihydrochloride], the “histopathological change: focal necrosis” value (BALB/c mice; at MTD i.p., necropsy 48 h after administration, one animal each) is reported as “one small focus”, the ALP (BALB/c mice; [4]) is reported as 83 U/L and 76 U/L and the ALT (BALB/c mice; [4]) is reported as 28 U/L. The AST (BALB/c mice; [4]) was 93 U/L and 61 U/L, the Amylase (BALB/c mice; [4]) was 2632 U/L and 2216 U/L and the Creatinine (BALB/c mice; [4]) was 78 µg/dL and 79 µg/dL. The Glucose (BALB/c mice; [4]) was 237 mg/dL and 228 mg/dL, the Urea (BALB/c mice; [4]) was 65 mg/dL and 38 mg/dL and the drop of eyelids (BALB/c mice; [5]) was “+”. For the same compound, the prostration (BALB/c mice; [5]) was “+”, the “weight at 24 h (%)” value (BALB/c mice; [5]) was -5.7% and -4.1% and the “weight at 48 h (%)” value (BALB/c mice; [5]) was -7.3% and -7.9%. For the same compound, the ALP (BALB/c mice; [6]) was 77 U/L and 63 U/L, the ALT (BALB/c mice; [6]) was 41 U/L and 43 U/L and the AST (BALB/c mice; [6]) was 124 U/L and 121 U/L. For the same compound, the Amylase (BALB/c mice; [6]) was 1905 U/L and 2464 U/L, the Creatinine (BALB/c mice; [6]) was 79 µg/dL and 45 µg/dL and the Glucose (BALB/c mice; [6]) was 226 mg/dL and 227 mg/dL. For the same compound, the Urea (BALB/c mice; [6]) was 39 mg/dL and 53 mg/dL, the hyper/hypoventilation (BALB/c mice; [7]) was “+” and the prostration (BALB/c mice; [7]) was “+”. For the same compound, the “weight at 24 h (%)” value (BALB/c mice; [7]) was -2.6% and -3.0%, the “weight at 48 h (%)” value (BALB/c mice; [7]) was -4.6% and -3.7% and the MTD at 48 h [1] was 100 mg/kg. It also gave a viability at 48 h, 10 µM [2] of 97 ± 7%, a viability at 48 h, 100 µM [2] of 111 ± 24% and a viability at 48 h, 10 µM [3] of 100 ± 2%. For the same compound, the viability at 48 h, 100 µM [3] was 83 ± 4%.
In the case of Cl.Cl.Cl.OCCN1CCN(CCCNc2ccccc2)CC1 [Compound 5, 2-(4-(3-(phenylamino)propyl)piperazin-1-yl)ethanol trihydrochloride], the ALP (BALB/c mice; [4]) is reported as 88 U/L and 80 U/L, the ALT (BALB/c mice; [4]) is reported as 29 U/L and 22 U/L and the AST (BALB/c mice; [4]) is reported as 65 U/L and 44 U/L. The Amylase (BALB/c mice; [4]) was 2531 U/L and 2489 U/L, the Glucose (BALB/c mice; [4]) was 187 mg/dL and 192 mg/dL and the Urea (BALB/c mice; [4]) was 65 mg/dL and 58 mg/dL. The ataxia (BALB/c mice; [5]) was “+”, the drop of eyelids (BALB/c mice; [5]) was “+” and the hyper/hypoventilation (BALB/c mice; [5]) was “++”. The tremor (BALB/c mice; [5]) was “+”, the ALP (BALB/c mice; [6]) was 37 U/L and 38 U/L and the ALT (BALB/c mice; [6]) was 28 U/L and 29 U/L. For the same compound, the AST (BALB/c mice; [6]) was 58 U/L and 59 U/L, the Amylase (BALB/c mice; [6]) was 1757 U/L and 2008 U/L and the Creatinine (BALB/c mice; [6]) was 23 µg/dL and 21 µg/dL. The Glucose (BALB/c mice; [6]) was 185 mg/dL and 175 mg/dL, the Urea (BALB/c mice; [6]) was 31 mg/dL and 33 mg/dL and the ataxia (BALB/c mice; [7]) was “++ and +”. For the same compound, the drop of eyelids (BALB/c mice; [7]) was “+”, the hyper/hypoventilation (BALB/c mice; [7]) was “++” and the lacrimation (BALB/c mice; [7]) was “+”. The prostration (BALB/c mice; [7]) was “++”, the saber-like tail (BALB/c mice; [7]) was “+” and the tremor (BALB/c mice; [7]) was “++”. For the same compound, the MTD at 48 h [1] was 200 mg/kg, the viability at 48 h, 10 µM [2] was 86 ± 16% and the viability at 48 h, 100 µM [2] was 115 ± 7%. The viability at 48 h, 10 µM [3] was 91 ± 2% and the viability at 48 h, 100 µM [3] was 109 ± 2%.
